In patent US20130344026A1, “Dimeric Smac Mimetics” (priority 2009, published 2013):
Where two headings read alike, the source gives them in different places.

Tested on: HCC461
Experiment: cell viability assay in HCC461, compound alone
Assay type: cell-based
[1] = HCC461, HCC461 cells, compound alone, read-out: IC50 (uM) in cell viability assay in HCC461
[2] = HCC461, HCC461, Tables 6-9, read-out: IC50 (μM) in cell viability assay in HCC461

Row | IC50 [1] | SMILES | also measured
1 | 0.063 µM | CN[C@@H](C)C(=O)N[C@H](C(=O)N1C[C@@H](NC(=O)c2cccc(C(=O)N[C@H]3C[C@@H](C(=O)N[C@H](C)c4ccccc4)N(C(=O)[C@@H](NC(=O)[C@H](C)NC)C(C)(C)C)C3)c2)C[C@H]1C(=O)N[C@H](C)c1ccccc1)C(C)(C)C [Compound P3-50] | 
2 | 0.008 µM | CN[C@@H](C)C(=O)N[C@H](C(=O)N1C[C@@H](NC(=O)c2ccccc2C(=O)N[C@H]2C[C@@H](C(=O)N[C@@H]3CCCc4ccccc43)N(C(=O)[C@@H](NC(=O)[C@H](C)NC)C(C)(C)C)C2)C[C@H]1C(=O)N[C@@H]1CCCc2ccccc21)C(C)(C)C [Compound P3-20] | 
3 | 0.091 µM | CN[C@@H](C)C(=O)N[C@H](C(=O)N1C[C@@H](NC(=O)c2cc(N)cc(C(=O)N[C@H]3C[C@@H](C(=O)N[C@@H]4CCCc5ccccc54)N(C(=O)[C@@H](NC(=O)[C@H](C)NC)C(C)C)C3)c2)C[C@H]1C(=O)N[C@@H]1CCCc2ccccc21)C(C)C [Compound P3-56] | 
4 | 0.051 µM | CN[C@@H](C)C(=O)N[C@H](C(=O)N1C[C@@H](NC(=O)c2cc(N)cc(C(=O)N[C@H]3C[C@@H](C(=O)N[C@@H]4CCCc5ccccc54)N(C(=O)[C@@H](NC(=O)[C@H](C)NC)C4CCCCC4)C3)c2)C[C@H]1C(=O)N[C@@H]1CCCc2ccccc21)C1CCCCC1 [Compound P3-54] | 
5 | 0.058 µM | CN[C@@H](C)C(=O)N[C@H](C(=O)N1C[C@@H](NC(=O)c2nn[nH]c2C(=O)N[C@H]2C[C@@H](C(=O)NC3CCCc4ccccc43)N(C(=O)[C@@H](NC(=O)[C@H](C)NC)C(C)(C)C)C2)CC1C(=O)N[C@@H]1CCCc2ccccc21)C(C)(C)C (stereo partly drawn) [Compound P3-26] | 
6 | 0.04 µM | CN[C@@H](C)C(=O)N[C@H](C(=O)N1C[C@@H](NC(=O)c2cc(N)cc(C(=O)N[C@H]3C[C@@H](C(=O)N[C@H](C)C4CCCCC4)N(C(=O)[C@@H](NC(=O)[C@H](C)NC)C(C)(C)C)C3)c2)C[C@H]1C(=O)N[C@H](C)C1CCCCC1)C(C)(C)C [Compound P3-44] | 
7 | 0.072 µM | CC[C@H](C)C(NC(=O)[C@H](C)NC)C(=O)N1C[C@@H](NC(=O)c2cc(OC)cc(C(=O)N[C@H]3C[C@@H](C(=O)N[C@H](C)c4ccccc4)N(C(=O)C(NC(=O)[C@H](C)NC)[C@@H](C)CC)C3)c2)C[C@H]1C(=O)NC(C)c1ccccc1 (stereo partly drawn) [Compound P3-74] | 

More lines, now with the values behind:

Row | SMILES | IC50 [1] | also measured
8 | CN[C@@H](C)C(=O)N[C@H](C(=O)N1C[C@@H](NC(=O)[C@H](O)[C@@H](O)C(=O)N[C@H]2C[C@@H](C(=O)NC3c4ccccc4-c4ccccc43)N(C(=O)[C@@H](NC(=O)[C@H](C)NC)C(C)(C)C)C2)C[C@H]1C(=O)NC1c2ccccc2-c2ccccc21)C(C)(C)C [Compound P3-15] | 0.017 µM | 
9 | CN[C@@H](C)C(=O)N[C@@H](CCCCNC(=O)c1cccc(C(=O)N[C@H]2C[C@@H](C(=O)N[C@@H]3CCCc4ccccc43)N(C(=O)[C@@H](NC(=O)[C@H](C)NC)C(C)(C)C)C2)c1)C(=O)N1CCCC[C@H]1C(=O)N[C@@H]1CCCc2ccccc21 [Compound 143] |  | IC50 [2]: 0.027 µM
10 | CN[C@@H](C)C(=O)N[C@H](C(=O)N1C[C@@H](NC(=O)c2cc(C(=O)N[C@H]3C[C@@H](C(=O)NC4CCCc5ccccc54)N(C(=O)[C@@H](NC(=O)[C@H](C)NC)C(C)(C)C)C3)cc([N+](=O)[O-])c2)CC1C(=O)N[C@@H]1CCCc2ccccc21)C(C)(C)C (stereo partly drawn) [Compound P3-16] | 0.007 µM | 
11 | C#CC[C@H](NC(=O)[C@H](C)NC)C(=O)N1C[C@@H](NC(=O)c2cccc(C(=O)N[C@H]3C[C@@H](C(=O)N[C@@H]4CCCc5ccccc54)N(C(=O)[C@H](CC#C)NC(=O)[C@H](C)NC)C3)c2)C[C@H]1C(=O)N[C@@H]1CCCc2ccccc21 [Compound P3-12] | 0.047 µM | 
12 | C#CC[C@H](NC(=O)[C@H](C)NC)C(=O)N1C[C@@H](n2cc(C[C@H](NC(=O)[C@H](C)NC)C(=O)N3C[C@@H](N=[N+]=[N-])C[C@H]3C(=O)N[C@@H]3CCCc4ccccc43)nn2)C[C@H]1C(=O)N[C@@H]1CCCc2ccccc21 [Compound H-2] |  | IC50 (HCC461, HCC461, Tables 15-18, read-out: IC50 (uM) in cell viability assay in HCC461): 0.114 µM
13 | CN[C@@H](C)C(=O)N[C@H](C(=O)N1C[C@@H](NC(=O)CC[C@@H](NC(=O)[C@H](NC(=O)[C@@H](C)NC)C(C)C)C(=O)N[C@@H](C)C(C)C)C[C@H]1C(=O)N[C@H](C)C(C)C)C(C)(C)C [Compound 160] |  | IC50 [2]: 29.4 µM
14 | CN[C@@H](C)C(=O)N[C@H](C(=O)N1C[C@@H](NC(=O)C2CCCC(C(=O)N[C@H]3C[C@@H](C(=O)N[C@H](C)C4CCCCC4)N(C(=O)[C@@H](NC(=O)[C@H](C)NC)C(C)(C)C)C3)C2)C[C@H]1C(=O)N[C@H](C)C1CCCCC1)C(C)(C)C (stereo partly drawn) [Compound P3-47] |  | IC50 (HCC461 cells, compound alone, read-out: IC50 (uM) in cell viability assay in HCC461): 0.022 µM
15 | CN[C@@H](C)C(=O)N[C@@H](CC#CC#CC[C@H](NC(=O)[C@H](C)NC)C(=O)N1CC=C[C@H]1C(=O)N[C@@H]1CCCc2ccccc21)C(=O)N1CC=C[C@H]1C(=O)N[C@@H]1CCCc2ccccc21 [Compound 89] |  | IC50 [2]: 0.414 µM
